Measurements from BindingDB's records for doi:10.1016/j.bmc.2013.03.060 (Meijo University, 2013).

Biological target: T1, Androgen receptor (Homo sapiens, UniProt P10275)
T1 sequence (P10275 whole entry): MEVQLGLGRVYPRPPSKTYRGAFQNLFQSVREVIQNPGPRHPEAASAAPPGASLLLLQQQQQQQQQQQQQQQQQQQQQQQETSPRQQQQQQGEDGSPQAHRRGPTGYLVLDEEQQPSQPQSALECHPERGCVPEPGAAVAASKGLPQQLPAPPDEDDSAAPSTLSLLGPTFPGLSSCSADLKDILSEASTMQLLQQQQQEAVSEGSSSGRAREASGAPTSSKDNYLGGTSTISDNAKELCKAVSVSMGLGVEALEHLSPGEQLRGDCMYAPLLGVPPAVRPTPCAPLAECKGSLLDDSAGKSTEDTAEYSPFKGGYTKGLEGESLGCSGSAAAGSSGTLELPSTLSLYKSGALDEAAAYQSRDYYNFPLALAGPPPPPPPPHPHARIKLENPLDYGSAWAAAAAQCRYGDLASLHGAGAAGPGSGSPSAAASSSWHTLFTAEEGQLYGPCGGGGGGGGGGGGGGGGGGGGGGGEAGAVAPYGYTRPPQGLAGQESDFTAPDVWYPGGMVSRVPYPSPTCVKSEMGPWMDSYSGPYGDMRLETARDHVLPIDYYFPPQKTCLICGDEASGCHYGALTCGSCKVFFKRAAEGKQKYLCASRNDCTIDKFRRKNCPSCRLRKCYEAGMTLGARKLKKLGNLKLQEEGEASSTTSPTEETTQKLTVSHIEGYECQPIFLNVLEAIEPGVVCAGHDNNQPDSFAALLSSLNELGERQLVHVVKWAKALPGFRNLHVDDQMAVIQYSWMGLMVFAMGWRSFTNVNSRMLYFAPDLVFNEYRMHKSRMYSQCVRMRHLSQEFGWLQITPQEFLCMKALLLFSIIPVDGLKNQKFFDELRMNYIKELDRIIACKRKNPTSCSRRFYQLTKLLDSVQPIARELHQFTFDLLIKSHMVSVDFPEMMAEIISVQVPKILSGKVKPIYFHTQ
Assay: Antagonist activity at human androgen receptor LBD expressed in human MDA-kb2 cells by luciferase reporter gene assay

| IC50 | Structure (SMILES) |
| --- | --- |
| 851 nM | CN(C)c1ccc(-c2cc(O)c3c(=O)cccc-3o2)cc1 |
| 851 nM | O=c1cccc2oc(-c3ccc(O)cc3)cc(O)c1-2 [5-hydroxy-2-(4-hydroxyphenyl)-4H-chromen-4-one] |
